# Source: ChEMBL document CHEMBL5050861 (2021)
# What was measured:
# [1] = Inhibition of recombinant mouse GALK1 using ATP as substrate incubated for 1 hr and measured by Kinase-Glo assay
# [2] = Stability of compound in rat microsomes assessed as half-life; type: ADME, Microsome
# [3] = Kinetic aqueous solubility of the compound; type: physicochemical; conditions: buffer; read-out: Kinetic_solubility
IC50 ([1]; read-out: IC50),half-life [2],solubility kinetic [3],IC50 [1],Compound
6.85 µM,> 30 min,35.7 µg/mL,–,CC1=C(C(=O)Nc2cc(C(=O)O)ccc2F)C(c2ccccc2Cl)N=C(Nc2nc3ccc(F)cc3o2)N1 (centres undefined)
6.85 µM,4.68 min,< 1 µg/mL,–,COC(=O)c1ccc(NC(=O)C2=C(C)NC(Nc3nc4ccccc4o3)=NC2c2ccccc2Cl)cn1 (centres undefined)
19.3 µM,> 30 min,2.4 µg/mL,–,CC1=C(C(=O)Nc2cc(C(N)=O)ccn2)C(c2ccccc2Cl)N=C(Nc2nc3ccc(F)cc3o2)N1 (centres undefined)
12.2 µM,> 30 min,< 1 µg/mL,–,CC1=C(C(=O)Nc2ccc(F)cc2)C(c2ccccc2Cl)N=C(Nc2nc3ccccc3o2)N1 (centres undefined)
–,30.8 min,< 1 µg/mL,Not Active,CC1=C(C(=O)Nc2ccc(Cl)cn2)C(c2ccccc2Cl)N=C(Nc2nc3ccccc3o2)N1 (centres undefined)
12.2 µM,> 30 min,53.3 µg/mL,–,COc1ccc(C(=O)O)cc1NC(=O)C1=C(C)NC(Nc2nc3ccc(F)cc3o2)=NC1c1ccccc1Cl (centres undefined)
21.7 µM,> 30 min,8.1 µg/mL,–,CC1=C(C(=O)Nc2cc(C(=O)O)ccn2)C(c2ccc(-c3ccc(C(F)(F)F)cc3)cc2Cl)N=C(Nc2nc3ccc(F)cc3o2)N1 (centres undefined)
–,28.7 min,< 1 µg/mL,Not Active,CC1=C(C(=O)Nc2ccccc2Cl)C(c2ccccc2Cl)N=C(Nc2nc3ccccc3o2)N1 (centres undefined)
7.69 µM,> 30 min,< 1 µg/mL,–,CC1=C(C(=O)Nc2ccc(CO)nc2)C(c2ccccc2Cl)N=C(Nc2nc3ccccc3o2)N1 (centres undefined)
19.3 µM,> 30 min,54 µg/mL,–,CC1=C(C(=O)Nc2cc(C(=O)O)ccc2Cl)C(c2ccccc2Cl)N=C(Nc2nc3ccc(F)cc3o2)N1 (centres undefined)
–,11.3 min,< 1 µg/mL,Not Active,CC1=C(C(=O)NCc2ccc(F)cc2)C(c2ccccc2Cl)N=C(Nc2nc3ccccc3o2)N1 (centres undefined)
12.2 µM,> 30 min,> 83 µg/mL,–,CC1=C(C(=O)Nc2cc(C(=O)O)ccn2)C(c2cc(C(=O)O)ccc2Cl)N=C(Nc2nc3ccc(F)cc3o2)N1 (centres undefined)
17.2 µM,> 30 min,< 1 µg/mL,–,CC1=C(C(=O)Nc2cccc(C(N)=O)c2)C(c2ccccc2Cl)N=C(Nc2nc3ccccc3o2)N1 (centres undefined)
17.2 µM,17.9 min,< 1 µg/mL,–,CC1=C(C(=O)Nc2ccccc2O)C(c2ccccc2Cl)N=C(Nc2nc3ccccc3o2)N1 (centres undefined)
3.85 µM,> 30 min,> 89 µg/mL,–,CC1=C(C(=O)Nc2cc(C(=O)O)ccn2)C(c2ccc(N3CCOCC3)cc2Cl)N=C(Nc2nc3ccc(F)cc3o2)N1 (centres undefined)
6.85 µM,20 min,< 1 µg/mL,–,COC(=O)c1ccnc(NC(=O)C2=C(C)NC(Nc3nc4ccccc4o3)=N[C@H]2c2ccccc2Cl)c1
7.69 µM,> 30 min,< 1 µg/mL,–,CC1=C(C(=O)Nc2cc(C(N)=O)ccn2)C(c2ccccc2Cl)N=C(Nc2nc3ccccc3o2)N1 (centres undefined)
12.2 µM,> 30 min,< 1 µg/mL,–,CC1=C(C(=O)Nc2cccc(F)c2)C(c2ccccc2Cl)N=C(Nc2nc3ccccc3o2)N1 (centres undefined)
10.9 µM,> 30 min,25.4 µg/mL,–,CC1=C(C(=O)Nc2cc(C(=O)O)ccc2F)C(c2ccccc2Cl)N=C(Nc2nc3ccccc3o2)N1 (centres undefined)
10.9 µM,> 30 min,< 1 µg/mL,–,CC1=C(C(=O)Nc2cc(CO)ccn2)C(c2ccccc2Cl)N=C(Nc2nc3ccc(F)cc3o2)N1 (centres undefined)
5.44 µM,18.4 min,< 1 µg/mL,–,COC(=O)c1ccnc(NC(=O)C2=C(C)NC(Nc3nc4ccccc4o3)=NC2c2ccccc2Cl)c1 (centres undefined)

# More lines, now with the values behind:
Compound,IC50 ([1]; read-out: IC50),half-life [2],solubility kinetic [3],IC50 [1]
CC1=C(C(=O)Nc2nncs2)C(c2ncccc2Cl)N=C(Nc2nc3ccccc3o2)N1 (centres undefined),19.3 µM,> 30 min,10.6 µg/mL,–
CC1=C(C(=O)Nc2ncc(CO)s2)C(c2ccccc2Cl)N=C(Nc2nc3ccccc3o2)N1 (centres undefined),19.3 µM,> 30 min,< 1 µg/mL,–
CC1=C(C(=O)Nc2nnc(C(F)(F)F)s2)C(c2ccccc2Cl)N=C(Nc2nc3ccccc3o2)N1 (centres undefined),21.7 µM,> 30 min,< 1 µg/mL,–
O/N=C1\CCCC2=C1C(c1ccccc1Cl)N=C(Nc1nc3ccccc3o1)N2 (centres undefined),10.9 µM,5.48 min,< 1 µg/mL,–
CC1=C(C(=O)Nc2ccc(CN)cc2)C(c2ccccc2Cl)N=C(Nc2nc3ccccc3o2)N1 (centres undefined),4.32 µM,72.5 min,10 µg/mL,–
CC1=C(C(=O)NCc2c(C)nn(C)c2C)C(c2ccc(C)cc2Cl)N=C(Nc2nc3cccc(N)c3o2)N1 (centres undefined),6.85 µM,2.37 min,12 µg/mL,–
CCn1cc(CNC(=O)C2=C(C)NC(Nc3nc4ccc(F)c(N)c4o3)=N[C@@H]2c2ccc(C)cc2Cl)cn1,10.9 µM,8.62 min,< 1 µg/mL,–
CC1=C(C(=O)Nc2cc(C(=O)O)ccn2)C(c2ccc(C)cc2Cl)N=C(Nc2nc3cccc(N)c3o2)N1 (racemic),1.72 µM,> 30 min,> 78 µg/mL,–
CC(C)C1=C(C(=O)Nc2nncs2)C(c2ccccc2Cl)N=C(Nc2nc3ccccc3o2)N1 (centres undefined),15.3 µM,> 30 min,< 1 µg/mL,–
CC1=C(C(=O)Nc2nncs2)C(c2ccccc2Br)N=C(Nc2nc3ccccc3o2)N1 (centres undefined),9.68 µM,> 30 min,< 1 µg/mL,–
CC1=C(C(=O)NCc2c(C)nn(C)c2C)C(c2ccc(C)cc2Cl)N=C(Nc2nc3ccc(F)cc3o2)N1 (centres undefined),4.85 µM,2.66 min,< 1 µg/mL,–
COC(=O)Cc1ccc(NC(=O)C2=C(C)NC(Nc3nc4ccccc4o3)=NC2c2ccccc2Cl)cc1 (centres undefined),12.2 µM,7.46 min,< 1 µg/mL,–
CN(C)C(=O)C1CC(=O)C2=C(C1)NC(Nc1nc3ccccc3o1)=NC2c1ccccc1Cl (centres undefined),4.32 µM,20.8 min,10.8 µg/mL,–
COc1ccc(C2N=C(Nc3nc4cccc(N)c4o3)NC(C)=C2C(=O)Nc2cc(C(=O)O)ccn2)c(Cl)c1 (racemic),> 1.93 µM,> 30 min,> 81 µg/mL,–
CC1=C(C(=O)Nc2nncs2)C(c2cc(Cl)ccc2Cl)N=C(Nc2nc3ccccc3o2)N1 (centres undefined),10.9 µM,> 30 min,< 1 µg/mL,–
CCn1cc(CNC(=O)C2=C(C)NC(Nc3nc4ccc(F)c(N)c4o3)=NC2c2ccc(Cl)cc2Cl)cn1 (centres undefined),1.93 µM,6.79 min,< 1 µg/mL,–
CC1=C(C(=O)Nc2cc(C(=O)O)ccn2)C(c2ccccc2Cl)N=C(Nc2nc3ccccc3o2)N1C (centres undefined),34.4 µM,> 30 min,> 76 µg/mL,–
CC1=C(C(=O)Nc2nc(CO)cs2)C(c2ccccc2Cl)N=C(Nc2nc3ccccc3o2)N1 (centres undefined),19.3 µM,> 30 min,< 1 µg/mL,–
COC(=O)c1cc(NC(=O)C2=C(C)NC(Nc3nc4ccccc4o3)=NC2c2ccccc2Cl)ccn1 (centres undefined),10.9 µM,> 30 min,< 1 µg/mL,–

Compound,IC50 ([1]; read-out: IC50),half-life [2],solubility kinetic [3],IC50 [1]
O=C1NCCC2=C1C(c1ccccc1Cl)N=C(Nc1nc3ccccc3o1)N2 (centres undefined),21.7 µM,27.1 min,< 1 µg/mL,–
CC1=C(C(=O)NCc2cnn(C)c2)C(c2ccc(F)cc2Cl)N=C(Nc2nc3cccc(N)c3o2)N1 (centres undefined),6.85 µM,29.6 min,49.6 µg/mL,–
CC1=C(C(=O)Nc2cc(N(C)C)ccn2)C(c2ccc(C)cc2Cl)N=C(Nc2nc3ccc(F)cc3o2)N1 (centres undefined),6.85 µM,17.6 min,6.2 µg/mL,–
COCCNC(=O)C1CC(=O)C2=C(C1)NC(Nc1nc3ccccc3o1)=NC2c1ccccc1Cl (centres undefined),4.85 µM,10.2 min,4.23 µg/mL,–
CC1=C(C(=O)Nc2ccccn2)C(c2ccccc2Cl)N=C(Nc2nc3cccc(N)c3o2)N1 (centres undefined),19.3 µM,> 30 min,< 1 µg/mL,–
COC(=O)c1ccccc1CNC(=O)C1=C(C)NC(Nc2nc3ccccc3o2)=NC1c1ccccc1Cl (centres undefined),4.32 µM,1.74 min,< 1 µg/mL,–
COC(=O)c1cccc(CNC(=O)C2=C(C)NC(Nc3nc4ccccc4o3)=NC2c2ccccc2Cl)c1 (centres undefined),7.69 µM,3.42 min,< 1 µg/mL,–
COC(=O)c1csc(NC(=O)C2=C(C)NC(Nc3nc4ccccc4o3)=NC2c2ccccc2Cl)n1 (centres undefined),13.7 µM,> 30 min,< 1 µg/mL,–
CC1=C(C(=O)Nc2ccccn2)C(c2ccccc2Cl)N=C(Nc2nc3ccccc3o2)N1 (centres undefined),10.9 µM,> 30 min,< 1 µg/mL,–
CC1=C(C(=O)NCc2cnn(C)c2)C(c2ccc(C)cc2Cl)N=C(Nc2nc3ncccc3o2)N1 (centres undefined),–,6.15 min,> 49 µg/mL,Not Active
COc1ccccc1CNC(=O)C1=C(C)NC(Nc2nc3ccccc3o2)=NC1c1ccccc1Cl (centres undefined),12.2 µM,1.4 min,< 1 µg/mL,–
CC1=C(C(=O)Nc2ccc(CN3CCOCC3)cc2)C(c2ccccc2Cl)N=C(Nc2nc3ccccc3o2)N1 (centres undefined),9.68 µM,22.3 min,< 1 µg/mL,–
CC1=C(C(=O)Nc2nncs2)C(c2cccnc2Br)N=C(Nc2nc3ccccc3o2)N1 (centres undefined),19.3 µM,> 30 min,11.1 µg/mL,–
CNC(=O)C1CC(=O)C2=C(C1)NC(Nc1nc3ccccc3o1)=NC2c1ccccc1Cl (centres undefined),6.85 µM,> 30 min,< 1 µg/mL,–
CC1=C(C(=O)Nc2cccc(CN)c2)C(c2ccccc2Cl)N=C(Nc2nc3ccccc3o2)N1 (centres undefined),6.85 µM,> 30 min,37.5 µg/mL,–
CC1=C(C(=O)NCc2cnn(C)c2)[C@@H](c2ccc(C)cc2Cl)N=C(Nc2nc3cccc(N)c3o2)N1,30.6 µM,7.87 min,21.9 µg/mL,–
CC1=C(C(=O)NCc2cn(C)cn2)[C@H](c2ccccc2Cl)N=C(Nc2nc3ccccc3o2)N1,4.32 µM,5.62 min,46.1 µg/mL,–
CC1=C(S(C)(=O)=O)C(c2ccccc2Cl)N=C(Nc2nc3ccccc3o2)N1 (centres undefined),19.3 µM,9.37 min,< 1 µg/mL,–
